The source of these data is patent US20250197407A1 (Jazz Pharmaceuticals Ireland Limited, priority 2022, published 2025).

Structures are written as SMILES.

SOS1/KRAS WT, sequence (Q07889 564-1049): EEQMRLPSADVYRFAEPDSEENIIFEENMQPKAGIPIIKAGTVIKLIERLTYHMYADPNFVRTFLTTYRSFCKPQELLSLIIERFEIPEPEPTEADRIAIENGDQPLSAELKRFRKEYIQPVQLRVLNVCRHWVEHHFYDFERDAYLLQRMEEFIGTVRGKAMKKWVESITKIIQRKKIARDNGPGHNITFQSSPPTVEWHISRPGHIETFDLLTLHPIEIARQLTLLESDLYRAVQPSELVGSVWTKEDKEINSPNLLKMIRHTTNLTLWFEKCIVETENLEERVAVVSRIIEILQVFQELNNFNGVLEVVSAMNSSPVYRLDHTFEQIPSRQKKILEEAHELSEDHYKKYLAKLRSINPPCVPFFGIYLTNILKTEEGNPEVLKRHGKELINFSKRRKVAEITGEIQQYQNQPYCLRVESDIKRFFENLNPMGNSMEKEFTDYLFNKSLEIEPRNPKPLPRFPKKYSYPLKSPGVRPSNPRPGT

This assay has as its target SOS1/KRAS WT (Homo sapiens (Human), UniProt Q07889). Put plainly: SOS1/KRAS WT HTRF binding assay (FRET-based protein-protein interaction). The settings on record: inhibition of His6-SOS1 (aa564-1049, 40 nM) binding to GST-KRAS-WT (aa1-188, 40 nM); at least two independent replicates; read-out: SOS1/KRAS WT HTRF Binding assay pIC50 (converted). The source says:
The capacity of compounds to inhibit SOS1 binding to KRAS-WT (wild-type) was quantified using a FRET-based protein-protein interaction assay. The assay is based on the transfer of energy between two fluorophores, a donor and an acceptor, when in close proximity. In this instance, the donor is a Europium-conjugated α-GST antibody that binds to GST-tagged KRAS-WT, and the acceptor is an XL665-conjugated α-His 6 antibody that binds to His 6-tagged SOS1. Binding of SOS1 to KRAS-WT results in an increased fluorescent signal at emission wavelength of 665 nm which can be detected on the EnVision plate reader. Compounds that inhibit binding will reduce the 665 nm signal emitted. Recombinant KRAS-WT protein (40 nM; Human KRAS, aa1-188 recombinant protein with N-terminal GST-tag) and SOS1 protein (40 nM; Human SOS1 exchange domain, aa564-1049 with N-terminal 6His-tag) were mixed together in assay buffer (5 mM HEPES pH7.3, 150 mM NaCl, 10 mM EDTA, 5 mM MgCl2, 0.05% BSA, 0.0025% NP-40, 1 mM DTT and 100 mM KF) and incubated at room temperature with a dose response of compound in a 384-well low volume white plate and a final volume of 5 ul. After a 60 minute incubation, 5 ul of 4 nM anti-GST-Eu(K) (Cisbio, France) combined with 20 nM anti-6His-XL665 (Cisbio, France), diluted in assay buffer, was added to the plate. Following a further 4 hr incubation at room temperature, time-resolved fluorescence was measured on the EnVision plate reader. DMSO (0.05%) and 10 μM reference compound were used to generate the Max and Min assay signals, respectively. Data was analysed using a four-parameter logistic model to calculate IC50 values, with at least two independent replicates performed for each compound.
Data was analyzed using a four-parameter logistic model to calculate IC50 values, with at least two independent replicates performed for each compound.
Turning to `Cc1nnc(NC(C)c2cccc(C(F)(F)F)c2)c2cc3c(cc12)n(C)c(=O)n3C1CCCC1` (centres unmarked) [Compound 1, 3-cyclopentyl-1,8-dimethyl-5-[1-[3-(trifluoromethyl)phenyl]-ethylamino]^− imidazo[4,5-g]phthalazin-2-one], the IC50 was 37.2 nM.
As to `Cc1nnc(N[C@H](C)c2cccc(C(F)(F)F)c2)c2cc3c(cc12)n(C)c(=O)n3C1CCCC1` [Compound 2, 3-cyclopentyl-1,8-dimethyl-5-[[(1R)-1-[3-(trifluoromethyl)phenyl]ethyl]amino] imidazo[4,5-g]phthalazin-2-one], the IC50 is 13.2 nM.
To `Cc1nnc(N[C@H](C)c2cccc(C(F)(F)F)c2)c2cc3c(cc12)n(C)c(=O)n3C` [Compound 3, 1,3,8-trimethyl-5-[[(1R)-1-[3-(trifluoromethyl)phenyl]ethyl]amino] imidazo[4,5-g]phthalazin-2-one] belongs 20.9 nM; to `Cc1nnc(N[C@H](C)c2cc(N)cc(C(F)(F)F)c2)c2cc3c(cc12)n(C)c(=O)n3C` [Compound 4, 5-[[(1R)-1-[3-amino-5-(trifluoromethyl)phenyl]ethyl]amino]-1,3,8-trimethyl-imidazo[4,5-g]phthalazin-2-one], 17 nM; to `Cc1nnc(N[C@H](C)c2cccc(C(F)F)c2)c2cc3c(cc12)n(C)c(=O)n3C` [Compound 5, 5-[[(1R)-1-[3-(difluoromethyl)phenyl]ethyl]amino]-1,3,8-trimethyl-imidazo[4,5-g]phthalazin-2-one], 39.8 nM.
In the case of `Cc1nnc(N[C@H](C)c2cccc(C(F)(F)CO)c2)c2cc3c(cc12)n(C)c(=O)n3C` [Compound 6, 5-[[(1R)-1-[3-(1,1-difluoro-2-hydroxy-ethyl)phenyl]ethyl]amino]-1,3,8-trimethyl-imidazo[4,5-g]phthalazin-2-one] it was 18.6 nM.
In the case of `Cc1nnc(N[C@H](C)c2cccc(C(F)(F)CO)c2F)c2cc3c(cc12)n(C)c(=O)n3C` [Compound 7, 5-[[(1R)-1-[3-(1,1-difluoro-2-hydroxy-ethyl)-2-fluoro-phenyl]ethyl]amino]-1,3,8-trimethyl-imidazo[4,5-g]phthalazin-2-one], the IC50 is 17.4 nM.
To `COCCn1c(=O)n(C)c2cc3c(C)nnc(N[C@H](C)c4cccc(C(F)(F)F)c4)c3cc21` [Compound 8, 3-(2-methoxyethyl)-1,8-dimethyl-5-[[(1R)-1-[3-(trifluoromethyl)phenyl]ethyl]amino]imidazo[4,5-g]phthalazin-2-one] belongs 12.6 nM; to `CCn1c(=O)n(C)c2cc3c(C)nnc(N[C@H](C)c4cccc(C(F)(F)F)c4)c3cc21` [Compound 9, 3-ethyl-1,8-dimethyl-5-[[(1R)-1-[3-(trifluoromethyl)phenyl]ethyl]amino] imidazo[4,5-g]phthalazin-2-one], 12 nM; to `Cc1c([C@@H](C)Nc2nnc(C)c3cc4c(cc23)n(C)c(=O)n4C)cccc1C(F)(F)CO` [Compound 10, 5-[[(1R)-1-[3-(1,1-difluoro-2-hydroxy-ethyl)-2-methyl-phenyl]ethyl]amino]-1,3,8-trimethyl-imidazo[4,5-g]phthalazin-2-one], 9.12 nM.
In the case of `Cc1nnc(N[C@H](C)c2cccc(C(F)(F)F)c2)c2cc3c(cc12)n(C)c(=O)n3CC(F)(F)F` [Compound 11, 1,8-dimethyl-5-[[(1R)-1-[3-(trifluoromethyl)phenyl]ethyl]amino]-3-(2,2,2-trifluoroethyl)imidazo[4,5-g]phthalazin-2-one] it was 12 nM.
For `Cc1nnc(N[C@H](C)c2cccc(C(F)(F)F)c2)c2cc3c(cc12)n(C)c(=O)n3C(C)C` [Compound 12, 3-isopropyl-1,8-dimethyl-5-[[(1R)-1-[3-(trifluoromethyl)phenyl]ethyl]amino]imidazo[4,5-g]phthalazin-2-one], the IC50 was 8.13 nM.
To `Cc1nnc(N[C@H](C)c2cccc(C(F)(F)F)c2)c2cc3c(cc12)n(C)c(=O)n3C1CC1` [Compound 13, 3-cyclopropyl-1,8-dimethyl-5-[[(1R)-1-[3-(trifluoromethyl)phenyl]ethyl]amino]imidazo[4,5-g]phthalazin-2-one] belongs 11.5 nM; to `Cc1nnc(N[C@H](C)c2cccc(C(F)(F)CO)c2)c2cc3c(cc12)n(C)c(=O)n3C(C)C` [Compound 14, 3-isopropyl-1,8-dimethyl-5-[[(1R)-1-[3-(1,1-difluoro-2-hydroxy-ethyl)phenyl]ethyl]amino]imidazo [4,5-g]phthalazin-2-one], 7.59 nM.
To `Cc1nnc(N[C@H](C)c2cccc(C(F)(F)CO)c2F)c2cc3c(cc12)n(C)c(=O)n3C(C)C` [Compound 15, 3-isopropyl-1,8-dimethyl-5-[[(1R)-1-[3-(1,1-difluoro-2-hydroxy-ethyl)-2-fluoro-phenyl]ethyl]amino]imidazo[4,5-g]phthalazin-2-one] belongs 8.32 nM.
Regarding `Cc1nnc(N[C@H](C)c2cccc(C(F)(F)C(C)(C)O)c2F)c2cc3c(cc12)n(C)c(=O)n3C` [Compound 16, 1,3,8-trimethyl-5-[[(1R)-1-[3-(1,1-difluoro-2-hydroxy-2-methyl-propyl)-2-fluoro-phenyl]ethyl]amino]imidazo[4,5-g]phthalazin-2-one], the IC50 was 11.2 nM.
In the case of `COCCn1c(=O)n(C)c2cc3c(N[C@H](C)c4cccc(C(F)(F)F)c4)nnc(C)c3cc21` [Compound 17, 1-(2-methoxyethyl)-3,8-dimethyl-5-[[(1R)-1-[3-(trifluoromethyl)phenyl]ethyl]amino] imidazo[4,5-g]phthalazin-2-one] it was 22.9 nM; in that of `Cc1nnc(N[C@H](C)c2cccc(C(F)(F)F)c2)c2cc3c(cc12)n(C)c(=O)n3CC1CC1` [Compound 18, 3-(cyclopropylmethyl)-1,8-dimethyl-5-[[(1R)-1-[3-(trifluoromethyl)phenyl]ethyl]amino] imidazo[4,5-g]phthalazin-2-one], 23.4 nM.
Consider `CCn1c(=O)n(C)c2cc3c(C)nnc(N[C@H](C)c4cccc(C(F)(F)CO)c4F)c3cc21` [Compound 19, 3-ethyl-1,8-dimethyl-5-[[(1R)-1-[3-(1,1-difluoro-2-hydroxy-ethyl)-2-fluoro-phenyl]ethyl]amino]imidazo[4,5-g]phthalazin-2-one], for which the IC50 was 9.12 nM.
To `CCn1c(=O)n(C)c2cc3c(C)nnc(N[C@H](C)c4cccc(C(F)F)c4F)c3cc21` [Compound 20, 3-ethyl-1,8-dimethyl-5-[[(1R)-1-[3-(difluoromethyl)-2-fluoro-phenyl]ethyl]amino]imidazo[4,5-g]phthalazin-2-one] belongs 10 nM; to `Cc1nnc(N[C@H](C)c2cccc(C(F)(F)CO)c2F)c2cc3c(cc12)n(C)c(=O)n3C1CCC1` [Compound 21, 3-cyclobutyl-1,8-dimethyl-5-[[(1R)-1-[3-(1,1-difluoro-2-hydroxy-ethyl)-2-fluoro-phenyl]ethyl]amino]imidazo[4,5-g]phthalazin-2-one], 9.77 nM; to `Cc1nnc(N[C@H](C)c2cccc(C(F)(F)F)c2)c2cc3c(cc12)n(C)c(=O)n3C1CCC1` [Compound 22, 3-cyclobutyl-1,8-dimethyl-5-[[(1R)-1-[3-(trifluoromethyl)phenyl]ethyl]amino] imidazo[4,5-g]phthalazin-2-one], 11.5 nM.
To `Cc1nnc(N[C@H](C)c2cccc(C(F)(F)F)c2)c2cc3c(cc12)OCC(=O)N3C` [Compound 23, 4,9-dimethyl-6-[[(1R)-1-[3-(trifluoromethyl)phenyl]ethyl]amino]pyridazino[4,5-g][1,4]benzoxazin-3-one] belongs 44.7 nM; to `Cc1nnc(N[C@H](C)c2cccc(C(F)(F)F)c2)c2cc3c(cc12)OC1(CC1)C(=O)N3C(C)C` [Compound 25, 4′-isopropyl-9′-methyl-6′-[[(1R)-1-[3-(trifluoromethyl)phenyl]ethyl]amino]spiro[cyclopropane-1,2′-pyridazino[4,5-g][1,4]benzoxazine]-3′-one], 63.1 nM.
To `Cc1nnc(N[C@H](C)c2cccc(C(F)(F)CO)c2F)c2cc3c(cc12)n(C)c(=O)n3C(C)(C)C` [Compound 26, 3-tert-butyl-1,8-dimethyl-5-[[(1R)-1-[3-(1,1-difluoro-2-hydroxy-ethyl)-2-fluoro-phenyl]ethyl]amino]imidazo[4,5-g]phthalazin-2-one] belongs 14.5 nM; to `Cc1nnc(N[C@H](C)c2cccc(C(F)F)c2F)c2cc3c(cc12)n(C)c(=O)n3C(C)(C)C` [Compound 27, 3-tert-butyl-1,8-dimethyl-5-[[(1R)-1-[3-(difluoromethyl)-2-fluoro-phenyl]ethyl]amino]imidazo[4,5-g]phthalazin-2-one], 9.33 nM.
